Tested on: Her2
Experiment: Degradation of Her2 in BT-474 cells, Western blot (Method 1)
Assay type: cell-based, human
Settings: 0.5 μM, overnight, positive control
Procedure: Human high-Her2 breast carcinoma BT474 (HTB-20), SK-BR-3 (HTB-30) and MCF-7 breast carcinoma (HTB-22) from American Type Culture Collection, VA, USA were grown in Dulbecco's modified Eagle's medium with 4 mM L-glutamine and antibiotics (100 IU/ml penicillin and 100 ug/ml streptomycine; GibcoBRL). To obtain exponential cell growth; cells were trypsinized, counted and seeded at a cell density of 0.5×10^6 cells/ml regularly, every 3 days. All experiments were performed on day 1 after cell passage.
BT-474 cells are treated with 0.5 μM, 2 μM, or 5 μM of 17AAG (a positive control) or 0.5 μM, 2 μM, or 5 μM of a compound of the invention overnight in DMEM medium. After treatment, each cytoplasmic sample is prepared from 1×10^6 cells by incubation of cell lysis buffer (#9803, cell Signaling Technology) on ice for 10 minutes. The resulting supernatant used as the cytosol fractions is dissolved with sample buffer for SDS-PAGE and run on a SDS-PAGE gel, blotted onto a nitrocellulose membrane by using semi-dry transfer. Non-specific binding to nitrocellulose is blocked with 5% skim milk in TBS with 0.5% Tween at room temperature for 1 hour, then probed with anti-Her2/ErB2 mAb (rabbit IgG, #2242, Cell Signaling) and anti-Tubulin (T9026, Sigma) as housekeeping control protein. […]

C=CCNC1=C2C[C@@H](C)C[C@H](OC)[C@H](O)[C@@H](C)/C=C(\C)[C@H](OC(N)=O)[C@@H](OC)/C=C\C=C(/C)C(=O)NC(=CC1=O)C2=O [Compound 17AAG, 17-allylamino-17-demethoxygeldanamycin]
degradation of Her2: partial degradation of Her2

Source: patent US8299107B2, “Triazole compounds that modulate HSP90 activity” (Synta Pharmaceuticals Corporation, priority 2007, dated 2012)
